Measured values reported in US20200023001A1, “GlycoFix (Structurally And Functionally Repaired Endothelial Glycocalyx)” (Northeastern University, priority 2018, published 2020).
“And” between values parts separate entries of the source, which are not always exact repeats. Equal values may be shown once.

Tested on: HS component of RFPEC glycocalyx
Test: HS component thickness and coverage by 10E4 HS immunofluorescence (Example 2)
Assay type: cell-based, rat
Protocol: RFPEC Culture. A rat fat pad endothelial cell (RFPEC) line^37 was utilized, originally isolated from rat epididymal fat pads by Dr. Mia Thi of Albert Einstein College of Medicine (Bronx, N.Y., USA). RFPECs were selected for their ability to naturally express a robust glycocalyx.^38 These ECs were cultured in tissue culture flasks at 37° C. and 5% CO2 in a humidified environment with Dulbecco's Modified Eagle's Medium (DMEM) supplemented with 10% fetal bovine serum (FBS) and 1% penicillin-streptomycin, all purchased from Thermo Fisher Scientific (Waltham, Mass., USA). For 3-(4,5-dimethylthiazol-2-yl)-5-(3-carboxymethoxyphenyl)-2-(4-sulfophenyl)-2H-tetrazolium (MTS) assays (Sigma-Aldrich Co., St Louis, Mo., USA), RFPECs were seeded at 3.7×10^4 cells/cm^2 in tissue culture-treated, 96-well plates (Falcon; Thermo Fisher Scientific) and imaged on a SpectraMax M3 plate reader to show cell viability and metabolic activity. For confocal imaging, RFPECs were seeded onto 12-mm diameter round glass cover slips (Thermo Fisher Scientific) at 1×10^4 cells/cm^2 in tissue culture-treated six-well plates (Falcon; Thermo Fisher Scientific). In both cases, the cells were allowed to grow for 48-60 hours to full confluence before starting the experiment.
RFPEC glycocalyx treatments. For control glycocalyx conditions, RFPEC cultures were grown in DMEM with 10% FBS and 1% penicillin-streptomycin. To generate dysfunctional glycocalyx conditions, the regular culture media of other RFPEC cultures was replaced with two variations of the modified media. For the collapsed glycocalyx configuration, the cells were grown in low serum media that consisted of DMEM with 1% penicillin-streptomycin and only 2% FBS.^1 For the degraded glycocalyx configuration, cultures were pretreated with DMEM/10^% FBS/1% penicillin-streptomycin containing a 2.5×10^−6 IU heparinase III (Hep III) (IBEX Pharmaceutical, Montreal, QC, Canada) enzyme for 2 hours, selectively degrading the HS glycosaminoglycans of the glycocalyx. To simulate a repaired glycocalyx state, the media containing Hep III was replaced with exogenous HS (Celsus Laboratories, Cincinnati, Ohio, USA) dissolved in DMEM/10% FBS/1% penicillin-streptomycin at 59 μg/mL. All RFPEC cultures, including those with untreated, collapsed, degraded, or repaired glycocalyx configurations, were exposed to 550 μg/mL of lyophilized and ultraviolet-sterilized PEG-AuNP during the 16-hour treatment time. Afterward, the free-floating particles were gently washed out before fixation to ensure that only the AuNP entrapped within the glycocalyx would be imaged. The red fluorescence detected from conjugated Alexa Fluor 647 was attributed to AuNP within the RFPEC monolayers (details are given in the “Confocal imaging and analysis” section).
Immunostaining. […]

[1] = RFPEC, Hep III 2 h then 16 h, with or without 59 μg/mL HS

heparan sulfate [HS]
HS coverage of RFPEC, result in words (FIG. 10F legend): recovered | HS coverage as % of the baseline measurements (Hep III, Hep III + 59 μg/mL HS): 44% | HS component thickness [1]: 1.2 μm and 1.21±0.31 μm | HS coverage of RFPEC surface [1]: 33.1%+3.7%
